Experiments:
[1] = target: T1, MAO-A (Homo sapiens, UniProt P21397); assay: Enzyme inhibition assay (in vitro peroxidase assay) against MAO-A
T1 sequence (P21397 1-527): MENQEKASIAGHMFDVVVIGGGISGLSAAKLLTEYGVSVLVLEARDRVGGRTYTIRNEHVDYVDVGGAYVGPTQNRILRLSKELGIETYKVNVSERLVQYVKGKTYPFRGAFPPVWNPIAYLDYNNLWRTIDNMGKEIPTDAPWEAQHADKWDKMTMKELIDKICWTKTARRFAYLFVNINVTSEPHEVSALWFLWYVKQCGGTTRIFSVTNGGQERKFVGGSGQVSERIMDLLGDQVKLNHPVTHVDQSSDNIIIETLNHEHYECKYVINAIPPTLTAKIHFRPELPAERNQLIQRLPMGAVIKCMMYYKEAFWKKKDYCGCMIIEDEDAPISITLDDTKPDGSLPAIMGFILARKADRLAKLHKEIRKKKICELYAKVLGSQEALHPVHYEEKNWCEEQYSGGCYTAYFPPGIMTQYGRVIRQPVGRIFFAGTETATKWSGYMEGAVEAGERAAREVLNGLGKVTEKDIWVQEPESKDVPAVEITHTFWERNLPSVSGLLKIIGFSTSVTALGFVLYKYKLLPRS
Method: Enzyme inhibition assays against LSD1, LSD2, MAO-A, and MAO-B were performed as previously described [25]. Technical replicates, n = 3.

[2] = test system: LN229; assay: Western blot of global histone modifications; assay type: cell-based; conditions: LN229, 5 μM, 96 h
Method: The effects of S2172 on global histone modifications in GSCs were examined using western blot analysis. GSC cells were treated with 5 μM of S2172 since […] of the cells are still viable at this concentration (Fig. 2, Supplementary Fig. S1E). […] Treatment of GSCs with S2172 increased the overall levels of H3K4me2 as well as H3K9me2. However, these changes were not statistically significant (Fig. 2A, B). […]
instructions. For GSC cells, the CellTiter-Glo 3D Viability Assay (Promega, Madison, WI, USA) was used to measure the living cells. All proliferation experiments were repeated […]
The density of bands was quantified using ImageJ software (https://imagej.nih.gov/ij/). […]
When mice were scanned with MRI, mice were anesthetized with isoflurane (3% in air) and placed in MRS 3017 Benchtop MRI Systems (MR Solutions, Guildford, UK). Using MRI images, tumor volumes were obtained by compiling tumor areas from all slices that contained tumors and calculated by ImageJ software (https://imagej.nih.gov/ij/) {Towner, […]
A. Western blot analysis (left panel) of H3K4me1, H3K4me2, H3K4me3, and H3K9me2 after treatment with either DMSO or S2172 5μM for 96 h in LN229. […] Quantification of signal intensity of western blot (right panel). […] Ratio was calculated by dividing cleaved band intensity by total protein band intensity. […]

Q: What does the source list for `NC1CCC(NC2CC2c2cc(F)cc(F)c2OCc2ccccc2)CC1` (stereo not drawn) [S2172]?
A: Ki [1]: > 250 µM; Inhibition of MAO-A (in words) ([1]; in vitro peroxidase assay): not inhibited; level of H3K4me2 [2]: significantly increased

Source: article PMC11645267, “Novel pharmacologic inhibition of lysine-specific demethylase 1 as a potential therapeutic for glioblastoma” (Cancer Gene Therapy, 2024)
